Assay results as given in patent US20090325287A1, “Methods for Obtaining High Viable Cell Density in Mammalian Cell Culture” (priority 2008, published 2009).

Key:
caspase 3/7 = test: Caspase 3/7 activity assay (APO-ONE) after staurosporine treatment; assay type: cell-based, Chinese Hamster; settings: staurosporine 2 μM, 16 h
Experimental: About 3×10^5 cells of each clone were seeded in one ml of growth medium in a 24-well plate. On day 4 (d4) post seeding, about 1×10^5 cells were transferred in triplicate to a 96 well plate. Staurosprine (2 μM fc) was added and the cells were incubated for 16 h before assaying for caspase3/7 activity by APO-ONE kit (BD Labs). The procedure was repeated on d10, except that Staurosporine was omitted. […] The apoptotic^R nature of the selected clones was confirmed by flow cytometry analysis (see below) and in some instances, by measuring the mitochondrial membrane potential.
Each apoptotic^R cell line was examined for caspase 3/7 activity by APO-ONE as this activity provides an indication of the degree of resistance of a cell line to apoptosis. Briefly, in this assay, the profluorescent substrate Z-DEVD-R110 is cleaved by caspase 3/7 in a dose-dependent manner. Exponential cultures of EA167 and EAX197 as well as the control cell line were treated with staurosporine for 16 hours to induce apoptosis, following which caspase 3/7 was measured. The caspase 3/7 activity in staurosporine treated control cells was arbitrarily set at 100%. […] As further evidence of the apoptotic^R nature of EA167 and EAX197, staurosporine-treated cultures of these two cell lines and the control cell line, were labeled with FITC-conjugated anti-caspase 3 antibody followed by analysis by flow cytometry. […]

caspase 3 = test: Flow cytometry with FITC-labeled anti-caspase 3 antibody after staurosporine treatment; assay type: cell-based, Chinese Hamster; settings: staurosporine 2 μM, 16 h
Experimental: About 1×10^6 cells from exponential cultures were withdrawn from each shake flask into 24 well plates, incubated with Staurosporine (2 μM fc) for 16 h, harvested and washed once in PBS. The cells were then incubated with CytoPerm (Cat. No. 2075KK, BD BioScience) to fix and permeablized them. Following a PBS wash, cells were incubated with FITC-labeled anti-caspase3 (Cat. No. 68654, BD BioScience) antibody before subjecting them to analysis by flow cytometry.
Each apoptotic^R cell line was examined for caspase 3/7 activity by APO-ONE as this activity provides an indication of the degree of resistance of a cell line to apoptosis. Briefly, in this assay, the profluorescent substrate Z-DEVD-R110 is cleaved by caspase 3/7 in a dose-dependent manner. Exponential cultures of EA167 and EAX197 as well as the control cell line were treated with staurosporine for 16 hours to induce apoptosis, following which caspase 3/7 was measured. The caspase 3/7 activity in staurosporine treated control cells was arbitrarily set at 100%. […] As further evidence of the apoptotic^R nature of EA167 and EAX197, staurosporine-treated cultures of these two cell lines and the control cell line, were labeled with FITC-conjugated anti-caspase 3 antibody followed by analysis by flow cytometry. […] However, 91% of the control cell population was positive for caspase 3 following staurosporine treatment. In contrast, only 9% of the population derived from cell line EAX197 and 30% of that derived from cell line EA167 were positive for caspase 3, confirming the apoptotic^R phenotype of these two cell lines.

## CN[C@@H]1C[C@H]2O[C@@](C)([C@@H]1OC)n1c3ccccc3c3c4c(c5c6ccccc6n2c5c31)C(=O)NC4 [staurosporine]
Caspase 3/7; EA167 cells (CHOK1SV expressing E1B-19K + Aven)
  caspase 3/7 activity, of staurosporine treated control cells (set at 100%): 30%
Caspase 3/7; EAX197 cells (CHOK1SV expressing E1B-19K + Aven + XIAPΔ)
  caspase 3/7 activity, of staurosporine treated control cells (set at 100%): 35%
Caspase 3; EA167 cells
  cell population positive for caspase 3: 30%
Caspase 3; EAX197 cells
  cell population positive for caspase 3: 9%
Caspase 3; control cell line (CHOK1SV, C1013A)
  cell population positive for caspase 3: 91%
